Data set [1] deals with Atg12-Bcl-2 interaction (Homo sapiens, UniProt P10415). Nature of the data set: Co-immunoprecipitation of Flag-Atg12 with endogenous Bcl-2, competition by Bcl-2 inhibitor. Type of data set: binding. The following applies: Atg12 immunoprecipitates from HEK293 cells incubated with 10 μM ABT-737 vs DMSO; western blot (FIG. 5G). The text has this:
(A) Sequence alignment of the BH3-like region of Atg12 with BH3 domains of the Bcl-2 family using ClustalW. […] Species abbreviations: Hs, Homo sapiens; Sc, Saccharomyces cerevisiae; Dm, Drosophila melanogaster. (B) Co-immunoprecipitation of Flag-tagged hAtg12 and Bcl-2 or Mcl-1 from HEK293 cells co-transfected as indicated. (C) Co-immunoprecipitation of Flag-tagged hAtg12 with endogenous Bcl-2 and Mcl-1 from HEK293 cells. (D) Co-immunoprecipitation of endogenous Atg12 and endogenous Mcl-1 in HEK293 and HeLa cells. (E) Co-immunoprecipitation of Flag-tagged Atg12 and endogenous Bcl-2 in HeLa cells treated with STS (3 μM; 4 h). (F) Co-immunoprecipitation of Flag-tagged Atg12 and endogenous Bcl-2 in HEK293 cells co-expressing a control plasmid (CAT) or HA-tagged BAD. (G) Flag-Atg12 was immunoprecipitated from HEK293 cells and incubated with either 10 μM ABT-737 or DMSO (vehicle control). Co-precipitating Bcl-2 was assessed by western blot after elution with excess Flag peptide. (H) Co-immunoprecipitation of wild-type Atg12 or Atg12/D64 mutants with Bcl-2 in HEK293 cells co-transfected as indicated.

A further data set concerns the target Atg12-Mcl-1 interaction (Homo sapiens, UniProt Q07820). Nature of the data set: Co-immunoprecipitation of Flag-Atg12 with Mcl-1, competition by Bcl-2 inhibitor. In kind it is binding. The settings on record: Atg12 immunoprecipitates from HEK293 cells incubated with 10 μM ABT-737 (FIG. 5G).
Data set [2] relates to Flag-tagged human Atg12 (wild type).
Data set [3] deals with Atg12-Bcl-2 interaction. Nature of the data set: Co-immunoprecipitation of Flag-tagged Atg12 and endogenous Bcl-2 in STS-treated HeLa cells. Type of data set: cell-based, human. The settings on record: STS 3 μM, 4 h (FIG. 5E). The text has this: (A) Sequence alignment of the BH3-like region of Atg12 with BH3 domains of the Bcl-2 family using ClustalW. The four conserved BH3 hydrophobic residues are colored in grey, and the conserved “GD” residues in black. Arrow indicates critical Asp64 residue in hAtg12. Species abbreviations: Hs, Homo sapiens; Sc, Saccharomyces cerevisiae; Dm, Drosophila melanogaster. (B) Co-immunoprecipitation of Flag-tagged hAtg12 and Bcl-2 or Mcl-1 from HEK293 cells co-transfected as indicated. (C) Co-immunoprecipitation of Flag-tagged hAtg12 with endogenous Bcl-2 and Mcl-1 from HEK293 cells. (D) Co-immunoprecipitation of endogenous Atg12 and endogenous Mcl-1 in HEK293 and HeLa cells. (E) Co-immunoprecipitation of Flag-tagged Atg12 and endogenous Bcl-2 in HeLa cells treated with STS (3 μM; 4 h). (F) Co-immunoprecipitation of Flag-tagged Atg12 and endogenous Bcl-2 in HEK293 cells co-expressing a control plasmid (CAT) or HA-tagged BAD. (G) Flag-Atg12 was immunoprecipitated from HEK293 cells and incubated with either 10 μM ABT-737 or DMSO (vehicle control). Co-precipitating Bcl-2 was assessed by western blot after elution with excess Flag peptide. (H) Co-immunoprecipitation of wild-type Atg12 or Atg12/D64 mutants with Bcl-2 in HEK293 cells co-transfected as indicated. In B, C, F-H, DAP1-Flag was used instead of Flag-Atg12 as a negative control for co-immunoprecipitation. […]

A further data set concerns Bax. As to the kind of experiment: Immunoprecipitation of conformationally active Bax (6A7 antibody) from HeLa cells. In kind it is cell-based, human. The settings on record: HeLa cells treated with STS; conformation-specific antibody 6A7 (FIG. 11C). Here is the method:
Conformationally active Bax was immunoprecipitated with anti-Bax antibody (6A7, Abcam). Cell pellets from STS-treated HeLa cells (3 μM, 4 h; Sigma Aldrich) were resuspended in 1% CHAPS (3-[(3-cholamidopropyl)-dimethylammonio]-1-propanesulfonate) buffer supplemented with protease and phosphatase inhibitors. Pre-cleared cell lysates were incubated with 2 μg antibody overnight at 4° C., followed by incubation with protein G agarose beads. Beads were washed with lysis buffer and boiled in sample buffer. Western blot detection of total Bax was performed with anti-Bax N20 antibody (Santa Cruz Biotechnology).
Next, it was assessed whether the depletion of Atg12 affected early events in the apoptotic cascade that are regulated by anti-apoptotic Bcl-2 proteins. […] Importantly, Bax activation was restored upon enforced expression of an siRNA-resistant construct of Atg12 (FIG. 11D).

The target of the next data set is T1, Flag-tagged Bcl-2 (UniProt P10415 1-239).
T1 construct: Expressed in HEK293 cells and immunoprecipitated on anti-FLAG beads; also called Flag-Bcl-2; not shown: Flag tag
T1 sequence (P10415 whole entry): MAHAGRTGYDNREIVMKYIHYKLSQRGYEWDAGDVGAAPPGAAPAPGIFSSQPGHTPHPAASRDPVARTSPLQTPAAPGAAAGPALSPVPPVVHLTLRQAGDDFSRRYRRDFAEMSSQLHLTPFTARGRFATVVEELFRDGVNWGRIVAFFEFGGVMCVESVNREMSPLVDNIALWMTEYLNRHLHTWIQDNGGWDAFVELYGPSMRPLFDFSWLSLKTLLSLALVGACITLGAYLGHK
Nature of the data set: immunoprecipitation of Flag-tagged Bcl-2, western blot for endogenous Atg12. Here is the method: (§1) For co-immunoprecipitation, HEK293 cells were transiently transfected with the indicated plasmids. Cell pellets were lysed in B buffer (0.4% NP-40, 0.5 mM EDTA, 100 mM KCl, 20 mM Hepes pH 7.6, 20% glycerol) supplemented with protease and phosphatase inhibitors. […] In Example 7, an irrelevant tagged protein (DAP1-Flag) was used as control.
The conjugation of Atg12 to Atg5 is an essential step in the process of autophagy. In order to establish whether Bcl-2 binds to free Atg12, or to the Atg5-Atg12 conjugate, the nature of endogenous Atg12 that is co-immunoprecipitated with Bcl-2 was examined more closely. Upon immunoprecipitation of Flag-tagged Bcl-2 from HEK293 cells, a single band corresponding to the size of unconjugated Atg12 was observed, with no traces at the expected conjugate size (FIG. 7A, left). Furthermore, neither of Atg12's reported conjugation partners, Atg5 or Atg3, could be detected on this blot. […] The interaction between Bcl-2 and free Atg12 is significant, considering that unconjugated Atg12 represents only a small fraction of cellular Atg12, whereas the majority of the protein is conjugated to Atg5, even under basal conditions when autophagy is not induced (FIG. 7A, right).
On the technique in general: Immunoblotting shows a protein as a band on a membrane.

The next data set addresses T2, Bcl-2 G145A (UniProt P10415 1-239).
T2 construct: Co-transfected with Flag-Atg12 in HEK293 cells; also called point mutation in the BH1 domain of Bcl-2
As to the kind of experiment: co-immunoprecipitation, transiently transfected HEK293 cells. Here is the method:
as §1
Therefore experiments were performed to test whether Atg12 was able to interact with members of each subgroup, specifically Bcl-2 and Mcl-1. In transiently transfected HEK293 cells, wild-type Bcl-2 co-immunoprecipitated with Flag-Atg12 (FIG. 5B). […] The specificity of the interaction was further confirmed by reciprocal co-immunoprecipitation, in which Flag-Bcl-2 pulled down ectopically expressed Atg12 (FIG. 6B). In addition, Mcl-1 also co-immunoprecipitated with Flag-Atg12 upon co-expression (FIG. 5B), and Flag-Atg12 interacted with endogenous Bcl-2 and Mcl-1 (FIG. 5C). Thus, Atg12 is able to bind promiscuously to both subgroups of Bcl-2-related proteins.

Sequence of Atg12-Bcl-2 interaction (Homo sapiens, UniProt P10415) (P10415 whole entry, the tested form may be a part): as the sequence (P10415 whole entry) above
Sequence of Atg12-Mcl-1 interaction (Q07820 whole entry): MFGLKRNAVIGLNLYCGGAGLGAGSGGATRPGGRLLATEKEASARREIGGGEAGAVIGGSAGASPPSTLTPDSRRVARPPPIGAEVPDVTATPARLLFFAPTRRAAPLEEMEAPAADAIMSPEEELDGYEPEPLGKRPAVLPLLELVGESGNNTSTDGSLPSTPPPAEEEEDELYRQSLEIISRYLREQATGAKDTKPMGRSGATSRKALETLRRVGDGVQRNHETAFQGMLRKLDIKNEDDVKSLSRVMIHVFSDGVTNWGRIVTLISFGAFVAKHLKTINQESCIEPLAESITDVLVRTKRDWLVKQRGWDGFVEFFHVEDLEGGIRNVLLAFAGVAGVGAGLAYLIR
T2 sequence (P10415 whole entry G145A, the tested form may be a part): as the sequence (P10415 whole entry) above, with G145A counted along it

For `CN(C)CC[C@H](CSc1ccccc1)Nc1ccc(S(=O)(=O)NC(=O)c2ccc(N3CCN(Cc4ccccc4-c4ccc(Cl)cc4)CC3)cc2)cc1[N+](=O)[O-]` [ABT-737], at Atg12-Bcl-2 interaction [1], the “interaction between Flag-Atg12 and endogenous Bcl-2” value is “disrupted”. Moreover, the “binding of Atg12 to Mcl-1” value on Atg12-Mcl-1 interaction is recorded as “not affected”.
For the molecule recombinant p38 purified from bacteria, the “in-vitro kinase assay (33P-ATP); phospho-mapping by mass spectrometry” value in data set [2] is on record as “p38 phosphorylates Atg12 in an in-vitro kinase assay; the site of phosphorylation was Thr65 in Atg12”.
For `CN[C@@H]1C[C@H]2O[C@@](C)([C@@H]1OC)n1c3ccccc3c3c4c(c5c6ccccc6n2c5c31)C(=O)NC4` [STS, staurosporine], the “binding of Flag-Atg12 to endogenous Bcl-2” value in the data set with Atg12-Bcl-2 interaction [3] is on record as “increased”. Besides, the Bax activation entry in the data set with Bax is listed as “activation of Bax”.

B1: Atg12 (human; untagged, endogenous, or tag not stated) (other)
chain: MAEEPQSVLQLPTSIAAGGEGLTDVSPETTTPEPPSSAAVSPGTEEPAGDTKKKIDILLKAVGDTPIMKTKKWAVERTRTIQGLIDFIKKFLKLVASEQLFIYVNQSFAPSPDQEVGTLYECFGSDGKLVLHYCKSQAWG
notes: also called hAtg12; endogenous Atg12
In the case of B1, the binding result in the data set with Flag-tagged Bcl-2 is recorded as “binds”.

B2: Flag-tagged human Atg12 (wild type) (other)
chain: B1 chain
notes: Expressed from pcDNA3 in HEK293 or HeLa cells and pulled down on anti-FLAG M2 beads; Also used here for the recombinant Atg12 made in E. coli and purified on FLAG-agarose (kinase assay); also called Flag-Atg12; Flag-tagged hAtg12; not shown: Flag tag
Turning to B2, the binding result with Bcl-2 G145A is given as “no binding”.

Source of the values: patent publication US20140155330A1, “Compositions And Methods For Modulating Apoptosis” (Yeda Research and Development Co. Ltd., priority 2011, published 2014).
